Target: Complement factor D (Homo sapiens, UniProt P00746)
Experiment: Not found
Text: Not found

Chain of Complement factor D (P00746 whole entry): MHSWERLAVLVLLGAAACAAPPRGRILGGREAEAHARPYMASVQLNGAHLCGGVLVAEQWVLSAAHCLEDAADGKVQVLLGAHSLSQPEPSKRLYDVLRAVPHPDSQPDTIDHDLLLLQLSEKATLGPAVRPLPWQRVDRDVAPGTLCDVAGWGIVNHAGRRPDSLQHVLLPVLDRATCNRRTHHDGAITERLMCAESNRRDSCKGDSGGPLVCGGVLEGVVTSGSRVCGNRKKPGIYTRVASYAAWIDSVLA

Which IC50 does the source give for `CC(=O)c1nn(CC(=O)N2C[C@H](F)C[C@H]2C(=O)Nc2cccc(-c3ccc4[nH]cnc4c3Cl)c2F)c2cnccc12` [US10807952, Cmp No. 1] here?
The IC50 was < 1 µM.

`NC(=O)c1nn(CC(=O)N2C[C@H](F)C[C@H]2C(=O)Nc2cccc(-c3ccc4[nH]cnc4c3Cl)c2F)c2ccc(Br)cc12` [US10807952, Cmp No. 4] was tested. Which IC50 did it give?
The IC50 was < 1 µM.

Which IC50 does the source give for `NC(=O)c1nn(CC(=O)N2C[C@H](F)C[C@H]2C(=O)Nc2cccc(-c3nc4cccc(Cl)c4[nH]3)c2F)c2ccccc12` [US10807952, Cmp No. 27] here?
Its IC50 is < 1 µM.

For `NC(=O)c1nn(CC(=O)N2C[C@H](F)C[C@H]2C(=O)Nc2cccc(Br)n2)c2cc(C(F)(F)F)sc12` [US10807952, Cmp No. 34], which IC50 is on record?
Its IC50 is < 1 µM.

`NC(=O)c1cccc(CC(=O)N2C[C@H](F)C[C@H]2C(=O)Nc2cccc(-c3ccccc3Cl)c2F)n1` [US10807952, Cmp No. 38] was tested. Which IC50 did it give?
Its IC50 is < 1 µM.

From BindingDB's records for patent US10807952 (Achillion Pharmaceuticals, Inc., 2020)
